Results from patent US9241885B2, “Oral care compositions comprising increased bioavailable levels of quaternary ammonium antimicrobials” (THE PROCTER & GAMBLE COMPANY, priority 2004, dated 2016).

Assay: Disk Retention Assay (DRA) of CPC bioavailability in mouthrinse formulations
Type: in vitro ADME
Settings: mouthrinse formulation
Description: In evaluating bioavailability and biological activity of quaternary ammonium antimicrobials in mouthwash formulations, an in vitro Disk Retention Assay (DRA) can be used to estimate drug bioavailability as well as an ex vivo Plaque Glycolysis and Regrowth Model (PGRM) to assess biological activity (S. J. Hunter-Rinderle, et al., “Evaluation of Cetylpyridinium Chloride-Containing Mouthwashes Using In Vitro Disk Retention and Ex Vivo Plaque Glycolysis Methods,” J. Clin. Den., 1997, 8:107-113). These assays are recommended for use in the proposed OTC monograph (Federal Register Vol. 68, No. 103 Part 356, “Oral Health Care Drug Products For Over-The-Counter Human Use; Antigingivitis/Antiplaque Drug Products; Establishment of a Monograph: Proposed Rules”).
This method is designed as a performance assay to analyze mouthrinse formulations containing from about 0.03% to about 0.1% CPC to quantitatively determine the “free” (“unbound”) or “bioavailable” level of CPC needed for clinical efficacy. The DRA assay measures the amount of CPC “binding” to standardized cellulose filter disks during filtration of an undiluted mouthrinse sample. The “bioavailable” CPC binds to the hydroxyl groups on the cellulose fiber during filtration while CPC, which has been rendered “non-bioavailable” (or “bound”)” through interactions with mouthrinse components, simply passes through the filter paper, i.e., the positive charge on the compound is no longer available for binding to the negatively charged cellulose disks. In this way, the DRA test provides an estimate of the amount of CPC available for binding to bacteria and mucosal surfaces during use of the mouthrinse. DRA measurements of CPC availability have been positively correlated to the results of in vitro microbiological assays and in vivo germ kill tests. Historically, cellulose fibers have been used in other applications to similarly monitor biological activity of drug actives (“Dairy Products” in Official Methods of Analysis of the Association of […] Analytical Chemists. 13th ed., 1980, Chapter 16:256).
“Bioavailable” CPC is the amount of CPC bound to or adsorbed to cellulose disks. This is determined by measuring the differences in CPC concentration in the mouthrinse before and after exposure to standardized cellulose disks. The method has been validated and shown to perform with acceptable accuracy, precision, and selectivity. A more detailed description of the test is provided below.
For example, a formulation comprising 0.05% CPC at 72% bioavailability would provide 360 ppm CPC. […] Determination of CPC bioavailability in a finished product is important to product performance as it readily defines the amount (concentration) of active available for deposition at the site of action. Because the positively charged (cationic) hydrophilic region is critical to antimicrobial activity, any formulation component that diminishes the activity of this cationic group or that competes with the group may inactivate the product.
Desirably, a formulation containing 0.05% CPC would have at least about 65% bioavailability to deliver at least about 324 ppm bioavailable CPC. A formulation containing a lower level of CPC such as 0.04% would need to have at least about 81% bioavailability to deliver the minimum required level of bioavailable CPC for efficacy.

Structure (SMILES): CCCCCCCCCCCCCCCC[n+]1ccccc1 [CPC, cetylpyridinium chloride]
- % bioavailable CPC (0.0 % Poloxamer): 94.24%
- % bioavailable CPC (0.05 % Poloxamer): 84.42%
- % bioavailable CPC (0.1 % Poloxamer): 61.14%
- % bioavailable CPC (0.15 % Poloxamer): 57.49%
- % bioavailable CPC (0.2 % Poloxamer): 52.96%
- % bioavailable CPC (0.25 % Poloxamer): 53.14%
- % bioavailable CPC (0.5 % Poloxamer): 42.63%
- % bioavailable CPC (0.75 % Poloxamer): 38.4%
- % bioavailable CPC (1.00 % Poloxamer): 35.09%
- bioavailability of CPC (level of 0.1% surfactant (Poloxamer) or higher): unacceptable bioavailability
